In brackets after ≈: the same amount, converted by molar mass.
What was measured:
E. coli = experiment: MIC versus efflux impaired and porin deficient strains; format: cell-based; conditions: Escherichia coli
Procedure: (§1) MIC determinations were performed using the broth microdilution method and in line with CLSI guidelines M07 and M100 (refs. [37],[38]). Bacterial inocula were prepared by diluting a 0.5 McFarland suspension in CAMHB or lysogeny broth (LB) specifically for A. baylyi isolates. […] MIC values of all of the tested antibiotics were read as the lowest compound concentration inhibiting bacterial growth by naked eye or beyond which the OD600 ceased to decrease.

A. baumannii [1] = experiment: MIC, broth microdilution in CAMHB supplemented with human serum, read at 100% growth inhibition; format: cell-based, Acinetobacter baumannii; conditions: Acinetobacter baumannii, ACC00535; CAMHB + 20% HS; read-out: MIC
Procedure: as §1

A. baumannii [2] = experiment: Bacterial phenotypic fingerprint profiling; format: cell-based, Acinetobacter baumannii; conditions: random forest model
Procedure: Sample preparation and analysis was conducted as previously described[26] for A. baumannii, with the generated and analysed dataset consisting of three independent experiments, n = 3, as the only modification to the protocol.
For the random forest analysis data proximity analysis from 4x and 8x LOED are pooled and the number of datapoints are reduced by down sampling to be equal for all reference conditions the maximal projection of the analysis. b, In the right panel an out-of-bag validation of the random forest classification model is indicated for the reference compounds. […] The degree of frequency of matching prediction correspond to the length of the individual bar segment, where a longer segment represents a higher similarity. […] Source Data

In the case of `CN1C(=O)[C@H](CCCCN)NC(=O)[C@H](CCCN)NCc2cccnc2Sc2c(Cl)ccc(Cl)c2CNC(=O)[C@@H]1Cc1c[nH]c2ccccc12` [RO7075573], the MIC (E. coli; E. coli 7623, WT, CAMHB, 100% inhibition, n = 1) is reported as over 64 µg/mL, the MIC (E. coli; E. coli 7623-, efflux impaired, Δ tolC) is reported as 32 µg/mL (≈ 43.3 µM) and the MIC (E. coli; E. coli R1535, porin deficient, Δ (OmpC; OmpF)) is reported as over 64 µg/mL. For the same compound, the MIC (A. baumannii [1]) was 0.12 µg/mL and the “Similarity towards RO7202110” value (A. baumannii [2]) was over 70%.

Reference: paper PMC10794144, “A novel antibiotic class targeting the lipopolysaccharide transporter” (Nature, 2024)
